17 molecules from ChEMBL document CHEMBL1156020, “Synthesis and antiviral activity of HCV NS3/4A peptidomimetic boronic acid inhibitors” (Bioorg Med Chem Lett, 2009) can be followed below.

Test [1] deals with Hepatitis C virus. The experiment in a line: Inhibition of HCV1b con1 NS3/4A protease after 20 mins by FRET-based assay. The arrangement: species or system Hepacivirus hominis. Conditions: Con1, 20 min.
Test [2] deals with Hepatitis C virus. The experiment in a line: Antiviral activity against HCV infected in human Huh-luc/neo-ET cells after 72 hrs by replicon assay. In kind it is functional, organism-based, Hepacivirus hominis. (Replicon systems follow genome replication, usually without infectious particles.)
Test [3] concerns Hepatitis C virus. The test is described as follows: Selectivity ratio of IC50 for HCV1b con1 wild type NS3/4A protease over IC50 for HCV1b con1 NS3/4A protease A156S mutant. The arrangement: species or system Hepacivirus hominis.
Test [4] has as its system Hepatitis C virus. The experiment in a line: Selectivity ratio of IC50 for HCV1b con1 wild type NS3/4A protease over IC50 for HCV1b con1 NS3/4A protease D168A mutant. The arrangement: species or system Hepacivirus hominis.
The nature of test [5]: Inhibition of HCV1a wild type NS3/4A protease after 20 mins by FRET-based assay. The arrangement: species or system Hepatitis C virus subtype 1a.
Test [6] has as its system Hepatitis C virus. The test is described as follows: Selectivity ratio of IC50 for HCV1b con1 wild type NS3/4A protease over IC50 for HCV1b con1 NS3/4A protease T54A mutant. On the set-up: species or system Hepacivirus hominis.
Test [7] relates to Hepatitis C virus. The test is described as follows: Selectivity ratio of IC50 for HCV1b con1 wild type NS3/4A protease over IC50 for HCV1b con1 NS3/4A protease A156V mutant. On the set-up: species or system Hepacivirus hominis.
Test [8] in a line: Inhibition of HCV2a wild type NS3/4A protease after 20 mins by FRET-based assay. The arrangement: species or system Hepatitis C virus subtype 2a.
In test [9] the test system is Hepatitis C virus. The test is described as follows: Selectivity ratio of IC50 for HCV1b con1 wild type NS3/4A protease over IC50 for HCV1b con1 NS3/4A protease R155K mutant. The arrangement: species or system Hepacivirus hominis.
Test [10] in a line: Inhibition of HCV3a wild type NS3/4A protease after 20 mins by FRET-based assay. On the set-up: species or system Hepatitis C virus subtype 3a.
Test [11] deals with Hepatitis C virus. The test is described as follows: Selectivity ratio of IC50 for HCV1b con1 wild type NS3/4A protease over IC50 for HCV1b con1 NS3/4A protease A156T mutant. On the set-up: species or system Hepacivirus hominis.

The structures appear in SMILES notation. pEC50, pIC50: −log10 of the molar value.

Broadly, the pIC50 is the negative decadic logarithm of the IC50, by convention in mol/L. By pEC50 is commonly meant the EC50 on a negative log10 scale, so that one unit is a factor of ten. A lower pEC50 goes with a high EC50. `CCC[C@H](NC(=O)[C@@H]1C[C@@H](OC(=O)N2Cc3ccccc3C2)CN1C(=O)[C@@H](NC(=O)OCCN1CCCC1)C(C)(C)C)B1O[C@@H]2C[C@@H]3C[C@@H](C3(C)C)[C@]2(C)O1` showed a pIC50 in test [1] of 8.30. In addition, the pEC50 in test [2] is less than 6.00.
Taken in the same sequence, the figures for `CCC[C@H](NC(=O)[C@@H]1C[C@@H](OC(=O)N2Cc3ccccc3C2)CN1C(=O)[C@@H](NC(=O)OCC(C)C)C(C)(C)C)B1O[C@@H]2C[C@@H]3C[C@@H](C3(C)C)[C@]2(C)O1` were 9.52 and 7.27.
In the same order, the values of `CCC[C@H](NC(=O)[C@@H]1C[C@@H](OC(=O)N2Cc3ccccc3C2)CN1C(=O)[C@@H](NS(C)(=O)=O)C(C)(C)C)B1O[C@@H]2C[C@@H]3C[C@@H](C3(C)C)[C@]2(C)O1` are 7.96 and less than 6.00.
Taken in the same sequence, the figures for `CCC[C@H](NC(=O)[C@@H]1C[C@@H](OC(=O)N2Cc3ccccc3C2)CN1C(=O)[C@@H](NC(=O)OC(C)(C)C)C(C)(C)C)B1O[C@@H]2C[C@@H]3C[C@@H](C3(C)C)[C@]2(C)O1` were 9.10 and 7.03.
`CCC[C@H](NC(=O)[C@@H]1C[C@@H](OC(=O)N2Cc3ccccc3C2)CN1C(=O)[C@@H](NC(=O)NCCN(CC)CC)C(C)(C)C)B1O[C@@H]2C[C@@H]3C[C@@H](C3(C)C)[C@]2(C)O1` showed a pIC50 in [1] of 7.57. This molecule also gave a negative-log EC50 (pEC50) in [2] of less than 6.00.
Take `CC(C)(C)OC(=O)N[C@H](C(=O)N1C[C@H](OC(=O)N2Cc3ccccc3C2)C[C@H]1C(=O)N[C@@H](CC1CCC1)B(O)O)C(C)(C)C`: the pIC50 in [1] is 8.70. Besides, in [2], the pEC50 is 6.77.
Turning to `CC[C@H](NC(=O)[C@@H]1C[C@@H](OC(=O)N2Cc3ccccc3C2)CN1C(=O)[C@@H](NC(=O)OC(C)(C)C)C1CCCCC1)B(O)O`, the “Ratio IC50” value in test [3] was determined as 4; in test [4] it was 47; in test [6], 69; in test [7], 64; in test [9], 63; in [11], 40. The pIC50 in test [1] was 9.00; in [5], 9.05; in [8] it was 8.22; in test [10], 7.64. In addition, the pEC50 in test [2] is 7.15.
On to `CCC[C@H](NC(=O)[C@@H]1C[C@@H](OC(=O)N2Cc3ccccc3C2)CN1C(=O)[C@@H](NC(=O)C(O)C(C)(C)C)C(C)(C)C)B1O[C@@H]2C[C@@H]3C[C@@H](C3(C)C)[C@]2(C)O1` (some centres undefined), for which the pIC50 in test [1] was 8.52. The molecule also gave a pEC50 in test [2] of less than 6.00.
Taken in the same sequence, the figures for `CCC[C@H](NC(=O)[C@@H]1C[C@@H](OC(=O)N2Cc3ccccc3C2)CN1C(=O)[C@@H](NC(=O)OCC(C)(C)C)C(C)(C)C)B1O[C@@H]2C[C@@H]3C[C@@H](C3(C)C)[C@]2(C)O1` were 9.15 and 7.39.
In the same order, the values of `CCC[C@H](NC(=O)[C@@H]1C[C@@H](OC(=O)N2Cc3ccccc3C2)CN1C(=O)[C@@H](NC(=O)OCC)C(C)(C)C)B1O[C@@H]2C[C@@H]3C[C@@H](C3(C)C)[C@]2(C)O1` are 8.70 and 6.64.
`CC(C)(C)OC(=O)N[C@H](C(=O)N1C[C@H](OC(=O)N2Cc3ccccc3C2)C[C@H]1C(=O)NC1(B(O)O)CC1)C1CCCCC1` had a pIC50 in [1] of 5.47.
For `CCC[C@H](NC(=O)[C@@H]1C[C@@H](OC(=O)N2Cc3ccccc3C2)CN1C(=O)[C@@H](NC(=O)OC(C)(C)C)C(C)(C)C)B(O)O`, the “Ratio IC50” value is 5 in test [3]; 61 in test [4]; 121 in [6]; 158 in [7]; 109 in test [9]; 70 in [11]. The pIC50 in test [1] is 9.00; in test [5], 8.70; in [8] it was 7.68; in [10], 7.21. For the same molecule, in test [2], the pEC50 was 7.16.
On to `CCC[C@H](NC(=O)[C@@H]1C[C@@H](OC(=O)N2Cc3ccccc3C2)CN1C(=O)[C@@H](NC(=O)OC(C)(C)C)C1CCCCC1)B(O)O`, for which, in test [1], the pIC50 is 8.70. Besides, the pEC50 in test [2] is 6.96.
With `CCC[C@H](NC(=O)[C@@H]1C[C@@H](OC(=O)N2Cc3ccccc3C2)CN1C(=O)[C@@H](NC(=O)N[C@H](CN(C)S(C)(=O)=O)C(C)(C)C)C(C)(C)C)B(O)O`, the “Ratio IC50” value is less than 4 in test [3]; less than 4 in test [4]; 8 in [6]; 12 in [7]; 6 in [9]; less than 4 in test [11]. In addition, the negative-log IC50 (pIC50) in [1] was 9.30; in test [5], 9.52; in test [8] it was 9.22; in [10] it was 9.05. Moreover, the negative logarithm of the EC50 (pEC50) in test [2] is 7.60.
In turn, `CCC[C@H](NC(=O)[C@@H]1C[C@@H](OC(=O)N2Cc3ccccc3C2)CN1C(=O)[C@@H](N)C(C)(C)C)B1O[C@@H]2C[C@@H]3C[C@@H](C3(C)C)[C@]2(C)O1` had a pIC50 in test [1] of 5.50.
As to `CCC[C@H](NC(=O)[C@@H]1C[C@@H](OC(=O)N2Cc3ccccc3C2)CN1C(=O)[C@@H](NC(=O)OCCF)C(C)(C)C)B1O[C@@H]2C[C@@H]3C[C@@H](C3(C)C)[C@]2(C)O1`, in test [1], the pIC50 is 8.70. Also, the pEC50 in test [2] was 6.39.
In the same order, the values of `CC[C@H](NC(=O)[C@@H]1C[C@@H](OC(=O)N2Cc3ccccc3C2)CN1C(=O)[C@@H](NC(=O)OC(C)(C)C)C(C)(C)C)B(O)O` are 8.70 and 7.01.
